What was measured:
Assay type in all cases: in vivo
[1] = tested on: Gm chloroplastic ALT-3-01 soybean plants; experiment: Halosulfuron-methyl tolerance of soybean plants (damage degree); parameters: dose or concentration left out as unconfirmed; settings: for Average damage % 3 DAT: 3 days after spraying; for Average damage % 7 DAT: 7 days after spraying; for Average damage % 14 DAT: 14 days after spraying; for Average damage % 21 DAT: 21 days after spraying
Description: (§1) The herbicide tolerance effects of Gm cytoplasmic ALT-1-01 soybean plants, Gm chloroplastic ALT-1-01 soybean plants, Gm cytoplasmic ALT-2-01 soybean plants, Gm chloroplastic ALT-2-01 soybean plants, Gm cytoplasmic ALT-3-01 soybean plants, Gm chloroplastic ALT-3-01 soybean plants and wild-type soybean plants on halosulfuron-methyl were detected (at seedling stage), respectively.
(§2) Gm cytoplasmic ALT-1-01 soybean plants, Gm chloroplastic ALT-1-01 soybean plants, Gm cytoplasmic ALT-2-01 soybean plants, Gm chloroplastic ALT-2-01 soybean plants, Gm cytoplasmic ALT-3-01 soybean plants, Gm chloroplastic ALT-3-01 soybean plants and wild-type soybean plants were respectively taken and sprayed with halosulfuron-methyl ([…]) and a blank solvent (water). The damage degree caused by the herbicide was measured for each plant according to the leaf curl degree and the growth point damage degree 3 days after spraying (3 DAT), 7 days after spraying (7 DAT), 14 days after spraying (14 DAT) and 21 days after spraying (21 DAT), respectively: considering conditions of leaves being flat as the untreated plants and growth points being intact as having a damage degree of 0%; considering conditions of veins being locally browned, new leaves being malformed and plant growth being slow as having a damage degree of 50%; and considering conditions of veins being purple to whole plant being dead and growth points being browned and dry as having a damage degree of 100%. There were 2 strains in Gm cytoplasmic ALT-1-01 soybean plants in total (S1 and S2), 2 strains in Gm chloroplastic ALT-1-01 soybean plants in total (S3 and S4), 2 strains in Gm cytoplasmic ALT-2-01 soybean plants in total (S5 and S6), 2 strains in Gm chloroplastic ALT-2-01 soybean plants in total (S7 and S8), 2 strains in Gm cytoplasmic ALT-3-01 soybean plants in total (S9 and S10), 2 strains in Gm chloroplastic ALT-3-01 soybean plants in total (S11 and S12), and 1 strain in wild-type soybean plants (CK1) in total; and 10-15 plants were selected from each strain and tested.

[2] = tested on: all the transformed Arabidopsis thaliana T1 plants (ALT-1, ALT-2 and ALT-3); experiment: Herbicide tolerance of Arabidopsis thaliana T1 plants; settings: 34 g ai/ha; summary of Table 1 and FIG. 4
Description: At cytoplasmic ALT-1-01 T1 plants, At chloroplastic ALT-1-01 T1 plants, At cytoplasmic ALT-2-01 T1 plants, At chloroplastic ALT-2-01 T1 plants, At cytoplasmic ALT-3-01 T1 plants, At chloroplastic ALT-3-01 T1 plants and wild-type Arabidopsis thaliana plants were sprayed with halosulfuron-methyl (34 g ai/ha, 1-fold field concentration) and a blank solvent (water), respectively. Plants were counted for the resistance situations 14 days after spraying: those having a consistent growth status with the blank solvent (water) group after 14 days were classified as highly resistant plants, those having a bolting height less than ½ of that of the blank solvent (water) group after 14 days were classified as moderately resistant plants, those still not capable of bolting after 14 days were classified as poorly resistant plants, and those dead after 14 days were classified as non-resistant plants. Since each Arabidopsis thaliana T1 plant was an independent transformation event, a significant difference in individual T1 responses could be expected at a given dose.
At cytoplasmic ALT-1-01 T1 plants, At chloroplastic ALT-1-01 T1 plants, At cytoplasmic ALT-2-01 T1 plants, At chloroplastic ALT-2-01 T1 plants, At cytoplasmic ALT-3-01 T1 plants, At chloroplastic ALT-3-01 T1 plants and wild-type Arabidopsis thaliana plants in Example 4 were sprayed with iodosulfuron-methyl (10 g ai/ha, 1-fold field concentration), mesosulfuron (14 g ai/ha, 1-fold field concentration) and oxasulfuron (60 g ai/ha, 1-fold field concentration), respectively, in addition to halosulfuron-methyl (34 g ai/ha, 1-fold field concentration) and the blank solvent (water). Plants were counted for the resistance situation 14 days after spraying: those having a consistent growth status with the blank solvent (water) group after 14 days were classified as highly resistant plants, those having a bolting height less than ½ of that of the blank solvent (water) group after 14 days were classified as moderately resistant plants, those still not capable of bolting after 14 days were classified as poorly resistant plants, and those dead after 14 days were classified as non-resistant plants. Since each Arabidopsis thaliana T1 plant was an independent transformation event, a significant difference in individual T1 responses could be expected at a given dose.

[3] = tested on: wild-type soybean plants (CK1); experiment: Halosulfuron-methyl tolerance of soybean plants (damage degree)
Description: as §1, §2

COC(=O)c1c(Cl)nn(C)c1S(=O)(=O)NC(=O)Nc1nc(OC)cc(OC)n1 [halosulfuron-methyl, 3-chlorine-5-(4,6-dimethoxypyrimidine-2-aminocarbonylaminosulphonyl)-1-methylpyrazole-4-carboxylic acid methyl ester]
Average damage % 3 DAT ([1]; strain S11): 10% | Average damage % 7 DAT ([1]; strain S11): 4% | Average damage % 14 DAT ([1]; strain S11): 0% | Average damage % 21 DAT ([1]; strain S11): 0% | Average damage % 3 DAT ([1]; strain S12): 11% | Average damage % 7 DAT ([1]; strain S12): 5% | Average damage % 14 DAT ([1]; strain S12): 0% | Average damage % 21 DAT ([1]; strain S12): 0% | tolerance of the plants to the herbicide [2]: conferred halosulfuron-methyl herbicide tolerance to individual Arabidopsis thaliana plants | tolerance of the plants to the herbicide ([3]; 34 g ai/ha, summary of Table 3): not tolerant | Average damage % 3 DAT ([3]; strain CK1, 34 g ai/ha (Hal.), 3 days after spraying): 51% | Average damage % 7 DAT ([3]; strain CK1, 34 g ai/ha (Hal.), 7 days after spraying): 87% | Average damage % 14 DAT ([3]; strain CK1, 34 g ai/ha (Hal.), 14 days after spraying): 100% | Average damage % 21 DAT ([3]; strain CK1, 34 g ai/ha (Hal.), 21 days after spraying): 100%
